US10405547B2, “Substituted cyclic amides as herbicides” (FMC Corporation, priority 2015, dated 2019)

Columns and labels:
Type in all cases: in vivo
[1] = system: blackgrass (Alopecurus myosuroides); assay: Test A postemergence, blackgrass; settings: visual injury, 0 to 100 scale (0 no effect, 100 complete control), approximately 10 days
In short: (§1)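 Injury scores (0 no effect, 100 complete control) were assigned by visually comparing treated with untreated plants after about 10 days of greenhouse growth. Seeds for soil treatment were sown into a loam and sand blend, while plants for foliar treatment grew in pots of that same blend.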

[2] = system: ragweed (common ragweed, Ambrosia elatior); assay: Test A preemergence, ragweed; settings: 0 to 100 scale (0 no effect, 100 complete control)
In short: as §1

[3] = system: ryegrass, Italian (Lolium multiflorum); assay: Test A preemergence, Italian ryegrass; settings: 0 to 100 scale (0 no effect, 100 complete control)
In short: as §1

[4] = system: ragweed (common ragweed, Ambrosia elatior); assay: Test A postemergence, ragweed; settings: visual injury, 0 to 100 scale (0 no effect, 100 complete control), approximately 10 days
In short: as §1

[5] = system: pigweed (Amaranthus retroflexus); assay: Test A preemergence, pigweed; settings: 0 to 100 scale (0 no effect, 100 complete control)
In short: as §1

kochia (Kochia scoparia) [6] = assay: Test A postemergence, kochia; settings: visual injury, 0 to 100 scale (0 no effect, 100 complete control), approximately 10 days
In short: as §1

[7] = system: galium (catchweed bedstraw, Galium aparine); assay: Test A postemergence, galium; settings: visual injury, 0 to 100 scale (0 no effect, 100 complete control), approximately 10 days
In short: as §1

corn (Zea mays) = assay: Test A postemergence, corn; settings: visual injury, 0 to 100 scale (0 no effect, 100 complete control), approximately 10 days
In short: as §1

[8] = system: wheat (Triticum aestivum); assay: Test A postemergence, wheat; settings: visual injury, 0 to 100 scale (0 no effect, 100 complete control), approximately 10 days
In short: as §1

[9] = system: barnyardgrass (Echinochloa crus-galli); assay: Test B flooded paddy test, barnyardgrass; settings: 250 g ai/ha, applied to paddy water, visual rating after 13 to 15 days, scale 0 (no effect) to 100 (complete control)
Description: (§2) At time of treatment, test pots were flooded to 3 cm above the soil surface, treated by application of test compounds directly to the paddy water, and then maintained at that water depth for the duration of the test. Treated plants and controls were maintained in a greenhouse for 13 to 15 days, after which time all species were compared to controls and visually evaluated. […] A dash (-) response means no test result.

[10] = system: foxtail, giant (Setaria faberii); assay: Test A preemergence, giant foxtail; settings: 0 to 100 scale (0 no effect, 100 complete control)
In short: as §1

[11] = system: barnyardgrass (Echinochloa crus-galli); assay: Test A postemergence, barnyardgrass; settings: visual injury, 0 to 100 scale (0 no effect, 100 complete control), approximately 10 days
In short: as §1

[12] = system: ryegrass, Italian (Lolium multiflorum); assay: Test A postemergence, Italian ryegrass; settings: visual injury, 0 to 100 scale (0 no effect, 100 complete control), approximately 10 days
In short: as §1

[13] = system: barnyardgrass (Echinochloa crus-galli); assay: Test A preemergence, barnyardgrass; settings: 0 to 100 scale (0 no effect, 100 complete control)
In short: as §1

kochia (Kochia scoparia) [14] = assay: Test A preemergence, kochia; settings: 0 to 100 scale (0 no effect, 100 complete control)
In short: as §1

[15] = system: foxtail, giant (Setaria faberii); assay: Test A postemergence, giant foxtail; settings: visual injury, 0 to 100 scale (0 no effect, 100 complete control), approximately 10 days
In short: as §1

[16] = system: sedge, umbrella (small-flower umbrella sedge, Cyperus difformis); assay: Test B flooded paddy test, umbrella sedge; settings: 250 g ai/ha, applied to paddy water, visual rating after 13 to 15 days, scale 0 (no effect) to 100 (complete control)
Description: as §2

[17] = system: pigweed (Amaranthus retroflexus); assay: Test A postemergence, pigweed; settings: visual injury, 0 to 100 scale (0 no effect, 100 complete control), approximately 10 days
In short: as §1

rice (Oryza sativa) = assay: Test B flooded paddy test, rice; settings: 250 g ai/ha, applied to paddy water, visual rating after 13 to 15 days, scale 0 (no effect) to 100 (complete control)
Description: as §2

[18] = system: ducksalad (Heteranthera limosa); assay: Test B flooded paddy test, ducksalad; settings: 250 g ai/ha, applied to paddy water, visual rating after 13 to 15 days, scale 0 (no effect) to 100 (complete control)
Description: as §2

SMILES	Plant response rating, Blackgrass ([1]; 125 g ai/ha)	Plant response rating, Blackgrass ([1]; 500 g ai/ha)	Plant response rating, Ragweed ([2]; 125 g ai/ha)	Plant response rating, Ragweed ([2]; 500 g ai/ha)	Plant response rating, Ryegrass, Italian ([3]; 125 g ai/ha)	Plant response rating, Ryegrass, Italian ([3]; 500 g ai/ha)	Plant response rating, Ragweed ([4]; 125 g ai/ha)	Plant response rating, Ragweed ([4]; 500 g ai/ha)	Plant response rating, Pigweed ([5]; 125 g ai/ha)	Plant response rating, Pigweed ([5]; 500 g ai/ha)	Plant response rating, Kochia (kochia (Kochia scoparia) [6]; 125 g ai/ha)	Plant response rating, Kochia (kochia (Kochia scoparia) [6]; 500 g ai/ha)	Plant response rating, Galium ([7]; 125 g ai/ha)	Plant response rating, Galium ([7]; 500 g ai/ha)	Plant response rating, Corn (corn (Zea mays); 125 g ai/ha)	Plant response rating, Corn (corn (Zea mays); 500 g ai/ha)	Plant response rating, Wheat ([8]; 125 g ai/ha)	Plant response rating, Wheat ([8]; 500 g ai/ha)	Plant response rating, Barnyardgrass (Flood) [9]	Plant response rating, Foxtail, Giant ([10]; 125 g ai/ha)	further results
O=C1NCC(c2cccc(Oc3ncc(F)cn3)c2)C1C(=O)Nc1ccccc1F (single isomer, unassigned) [Compound 39]	0	40	0	50	0	60	0	30	0	0	0	0	0	30	30	70	0	60	0	90	Plant response rating, Foxtail, Giant ([10]; 500 g ai/ha): 100; Plant response rating, Barnyardgrass ([11]; 125 g ai/ha): 70; Plant response rating, Barnyardgrass ([11]; 500 g ai/ha): 100; Plant response rating, Ryegrass, Italian ([12]; 125 g ai/ha): 0; Plant response rating, Ryegrass, Italian ([12]; 500 g ai/ha): 20; Plant response rating, Barnyardgrass ([13]; 125 g ai/ha): 70; Plant response rating, Barnyardgrass ([13]; 500 g ai/ha): 90; Plant response rating, Kochia (kochia (Kochia scoparia) [14]; 125 g ai/ha): 30; Plant response rating, Kochia (kochia (Kochia scoparia) [14]; 500 g ai/ha): 50; Plant response rating, Foxtail, Giant ([15]; 125 g ai/ha): 70; Plant response rating, Foxtail, Giant ([15]; 500 g ai/ha): 80; Plant response rating, Sedge, Umbrella (Flood) [16]: 0; Plant response rating, Pigweed ([17]; 125 g ai/ha): 0; Plant response rating, Pigweed ([17]; 500 g ai/ha): 20; Plant response rating, Rice (Flood) (rice (Oryza sativa)): 0; Plant response rating, Ducksalad (Flood) [18]: 75
CN1CC(c2cccc(Oc3ccc(C(F)(F)F)cn3)c2)C(C(=O)Nc2ccccc2F)C1=O (single isomer, unassigned) [Compound 43]	30	50	0	80	30	80	0	0	40	80	40	60	70	80	40	80	30	50	50	90	Plant response rating, Foxtail, Giant ([10]; 500 g ai/ha): 90; Plant response rating, Barnyardgrass ([11]; 125 g ai/ha): 90; Plant response rating, Barnyardgrass ([11]; 500 g ai/ha): 90; Plant response rating, Ryegrass, Italian ([12]; 125 g ai/ha): 0; Plant response rating, Ryegrass, Italian ([12]; 500 g ai/ha): 30; Plant response rating, Barnyardgrass ([13]; 125 g ai/ha): 80; Plant response rating, Barnyardgrass ([13]; 500 g ai/ha): 80; Plant response rating, Kochia (kochia (Kochia scoparia) [14]; 125 g ai/ha): 30; Plant response rating, Kochia (kochia (Kochia scoparia) [14]; 500 g ai/ha): 30; Plant response rating, Foxtail, Giant ([15]; 125 g ai/ha): 80; Plant response rating, Foxtail, Giant ([15]; 500 g ai/ha): 80; Plant response rating, Sedge, Umbrella (Flood) [16]: 0; Plant response rating, Pigweed ([17]; 125 g ai/ha): 30; Plant response rating, Pigweed ([17]; 500 g ai/ha): 50; Plant response rating, Rice (Flood) (rice (Oryza sativa)): 15; Plant response rating, Ducksalad (Flood) [18]: 98
CN1CC(c2cccc(Oc3ccc(C(F)(F)F)cn3)c2)C(C(=O)Nc2cccc(F)c2F)C1=O (single isomer, unassigned) [Compound 44]	30	50	0	60	30	90	0	0	30	80	30	60	70	80	40	80	0	50	40	90	Plant response rating, Foxtail, Giant ([10]; 500 g ai/ha): 90; Plant response rating, Barnyardgrass ([11]; 125 g ai/ha): 90; Plant response rating, Barnyardgrass ([11]; 500 g ai/ha): 90; Plant response rating, Ryegrass, Italian ([12]; 125 g ai/ha): 0; Plant response rating, Ryegrass, Italian ([12]; 500 g ai/ha): 30; Plant response rating, Barnyardgrass ([13]; 125 g ai/ha): 80; Plant response rating, Barnyardgrass ([13]; 500 g ai/ha): 80; Plant response rating, Kochia (kochia (Kochia scoparia) [14]; 125 g ai/ha): 0; Plant response rating, Kochia (kochia (Kochia scoparia) [14]; 500 g ai/ha): 0; Plant response rating, Foxtail, Giant ([15]; 125 g ai/ha): 70; Plant response rating, Foxtail, Giant ([15]; 500 g ai/ha): 80; Plant response rating, Sedge, Umbrella (Flood) [16]: 0; Plant response rating, Pigweed ([17]; 125 g ai/ha): 50; Plant response rating, Pigweed ([17]; 500 g ai/ha): 80; Plant response rating, Rice (Flood) (rice (Oryza sativa)): 0; Plant response rating, Ducksalad (Flood) [18]: 90
CN1CC(c2cccc(Oc3ccc(F)cc3)c2)C(C(=O)Nc2ccccc2F)C1=O (single isomer, unassigned) [Compound 45]	30	30	0	30	30	80	0	0	40	70	40	60	60	60	0	50	0	20	40	90	Plant response rating, Foxtail, Giant ([10]; 500 g ai/ha): 90; Plant response rating, Barnyardgrass ([11]; 125 g ai/ha): 90; Plant response rating, Barnyardgrass ([11]; 500 g ai/ha): 90; Plant response rating, Ryegrass, Italian ([12]; 125 g ai/ha): 0; Plant response rating, Ryegrass, Italian ([12]; 500 g ai/ha): 30; Plant response rating, Barnyardgrass ([13]; 125 g ai/ha): 80; Plant response rating, Barnyardgrass ([13]; 500 g ai/ha): 80; Plant response rating, Kochia (kochia (Kochia scoparia) [14]; 125 g ai/ha): 0; Plant response rating, Kochia (kochia (Kochia scoparia) [14]; 500 g ai/ha): 20; Plant response rating, Foxtail, Giant ([15]; 125 g ai/ha): 80; Plant response rating, Foxtail, Giant ([15]; 500 g ai/ha): 80; Plant response rating, Sedge, Umbrella (Flood) [16]: 0; Plant response rating, Pigweed ([17]; 125 g ai/ha): 30; Plant response rating, Pigweed ([17]; 500 g ai/ha): 60; Plant response rating, Rice (Flood) (rice (Oryza sativa)): 15; Plant response rating, Ducksalad (Flood) [18]: 70
CN1CC(c2cccc(Oc3ccc(F)cc3)c2)C(C(=O)Nc2cccc(F)c2F)C1=O (single isomer, unassigned) [Compound 46]	0	30	0	30	20	80	0	0	40	70	40	60	60	70	40	50	0	20	0	90	Plant response rating, Foxtail, Giant ([10]; 500 g ai/ha): 90; Plant response rating, Barnyardgrass ([11]; 125 g ai/ha): 90; Plant response rating, Barnyardgrass ([11]; 500 g ai/ha): 90; Plant response rating, Ryegrass, Italian ([12]; 125 g ai/ha): 0; Plant response rating, Ryegrass, Italian ([12]; 500 g ai/ha): 30; Plant response rating, Barnyardgrass ([13]; 125 g ai/ha): 70; Plant response rating, Barnyardgrass ([13]; 500 g ai/ha): 80; Plant response rating, Kochia (kochia (Kochia scoparia) [14]; 125 g ai/ha): 0; Plant response rating, Kochia (kochia (Kochia scoparia) [14]; 500 g ai/ha): 20; Plant response rating, Foxtail, Giant ([15]; 125 g ai/ha): 70; Plant response rating, Foxtail, Giant ([15]; 500 g ai/ha): 80; Plant response rating, Sedge, Umbrella (Flood) [16]: 0; Plant response rating, Pigweed ([17]; 125 g ai/ha): 50; Plant response rating, Pigweed ([17]; 500 g ai/ha): 70; Plant response rating, Rice (Flood) (rice (Oryza sativa)): 0; Plant response rating, Ducksalad (Flood) [18]: 30
